Where “and” joins values, the source holds several entries; their conditions need not be identical. Equal values may be shown once. Read-outs that look alike come from different tables or passages of the source.
Tests used:
α7-nAChR [1] = biological target: T1, α7-nAChR (Mus musculus, UniProt P49582); conditions: in vivo
α2β4-nAChR = biological target: T2, α2β4-nAChR (Rattus norvegicus, UniProt P12389+P12392); assay: Heteromeric nAChR binding assay, transfected HEK293 membranes, [3H]epibatidine; conditions: stably transfected HEK293 cells, [3H]epibatidine (0.5 nM)
T2 construct: expressed in transfected cells

α7-nAChR [2] = biological target: α7-nAChR (Rattus norvegicus, UniProt Q05941); assay: biochemical; type: binding
α3β4-nAChR = biological target: T3, α3β4-nAChR (Rattus norvegicus, UniProt P04757+P12392); assay: Heteromeric nAChR binding assay, transfected HEK293 membranes, [3H]epibatidine; conditions: stably transfected HEK293 cells, [3H]epibatidine (0.5 nM)
T3 construct: expressed in transfected cells

rat a7-nAChR = rat a7-nAChR (Rattus norvegicus, UniProt Q05941); assay: biochemical; type: binding
Human 5-HT3 = biological target: T4, Human 5-HT3 (Homo sapiens, UniProt P46098); assay: 5-HT3(h) binding assay, recombinant HEK293 cells, [3H]GR65630
T4 sequence (P46098 24-478): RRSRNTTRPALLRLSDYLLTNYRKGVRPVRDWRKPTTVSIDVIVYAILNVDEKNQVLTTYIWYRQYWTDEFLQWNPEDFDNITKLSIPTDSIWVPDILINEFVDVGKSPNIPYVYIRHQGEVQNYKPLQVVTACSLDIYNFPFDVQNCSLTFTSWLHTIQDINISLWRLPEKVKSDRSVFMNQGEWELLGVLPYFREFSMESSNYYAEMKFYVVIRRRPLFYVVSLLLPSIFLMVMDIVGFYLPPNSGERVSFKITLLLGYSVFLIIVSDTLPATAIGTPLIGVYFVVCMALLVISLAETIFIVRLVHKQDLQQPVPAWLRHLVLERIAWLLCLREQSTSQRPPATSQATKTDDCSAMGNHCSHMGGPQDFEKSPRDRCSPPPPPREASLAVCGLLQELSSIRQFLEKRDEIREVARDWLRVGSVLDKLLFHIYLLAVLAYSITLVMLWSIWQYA

α3β2-nAChR = α3β2-nAChR (Rattus norvegicus, UniProt P04757+P12390); assay: Heteromeric nAChR binding assay, transfected HEK293 membranes, [3H]epibatidine; conditions: stably transfected HEK293 cells, [3H]epibatidine (0.5 nM)
α4β4-nAChR = biological target: T5, α4β4-nAChR (Rattus norvegicus, UniProt P09483+P12392); assay: as above; conditions: stably transfected HEK293 cells, [3H]epibatidine (0.5 nM)
T5 construct: expressed in transfected cells

rat α7-nAChRs = rat α7-nAChRs (Rattus norvegicus, UniProt Q05941); type: cell-based
α2β2-nAChR = α2β2-nAChR (Rattus norvegicus, UniProt P12389+P12390); assay: Heteromeric nAChR binding assay, transfected HEK293 membranes, [3H]epibatidine; conditions: stably transfected HEK293 cells, [3H]epibatidine (0.5 nM)
α4β2-nAChR = α4β2-nAChR (Rattus norvegicus, UniProt P09483+P12390); assay: as above
[3] = type: binding; conditions: read-out: human Ki α7-nAChR
[4] = male, human, in vivo
α7-nAChR [5] = biological target: T1, α7-nAChR; set-up: The brains were rapidly removed and dissected on ice; tissue Charles River Laboratories; host or cells: brain of live male CD-1 mice; species or system CD-1 mice; conditions: in vivo
α7-nAChR [6] = biological target: T1, α7-nAChR; set-up: studied in mice, pigs, and non-human primates as potential α7-nAChR probes; host or cells: mouse brain (cortex) in vivo; species or system mice; conditions: in vivo
[7] = 18F-ASEM radiometabolite analysis in mice
Method: (§1) Baboon arterial blood samples were withdrawn at 5, 10, 20, 30, 60, and 90 min after ^18-FASEM injection, and plasma was analyzed by HPLC. Male CD-1 mice (25-26 g) were injected via the lateral tail veins with 37 MBq of high-specific-activity ^18-FASEM. The mice were killed by cervical dislocation at 2 and 30 min after injection, and a terminal blood sample was obtained.

a7-nAChR = conditions: in vivo
[8] = 18F-ASEM radiometabolite analysis in baboon; conditions: baboons, 90 min after injection
Method: as §1

α7-nAChR [9] = biological target: α7-nAChR (Homo sapiens, UniProt P36544); conditions: in vivo
[10] = male, CD-1, mouse, in vivo, iv
Method: as §1

Sequence of α7-nAChR (Rattus norvegicus, UniProt Q05941) (Q05941 23-502): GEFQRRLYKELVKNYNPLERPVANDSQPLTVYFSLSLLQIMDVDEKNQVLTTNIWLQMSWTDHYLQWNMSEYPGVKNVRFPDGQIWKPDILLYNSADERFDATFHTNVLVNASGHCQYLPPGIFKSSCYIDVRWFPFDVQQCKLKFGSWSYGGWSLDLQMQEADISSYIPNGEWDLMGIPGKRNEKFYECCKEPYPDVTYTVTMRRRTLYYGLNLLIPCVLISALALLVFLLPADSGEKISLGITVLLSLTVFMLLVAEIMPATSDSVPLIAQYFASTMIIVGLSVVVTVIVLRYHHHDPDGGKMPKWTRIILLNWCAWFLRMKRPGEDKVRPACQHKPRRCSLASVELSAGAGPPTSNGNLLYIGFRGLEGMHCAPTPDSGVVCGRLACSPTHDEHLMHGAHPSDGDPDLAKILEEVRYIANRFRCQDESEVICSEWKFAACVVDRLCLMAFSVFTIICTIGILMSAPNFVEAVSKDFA
T1 sequence (P49582 23-502): as the sequence (Q05941 23-502) above, with A402T counted along it
Sequence of α7-nAChR (Homo sapiens, UniProt P36544) (P36544 23-502): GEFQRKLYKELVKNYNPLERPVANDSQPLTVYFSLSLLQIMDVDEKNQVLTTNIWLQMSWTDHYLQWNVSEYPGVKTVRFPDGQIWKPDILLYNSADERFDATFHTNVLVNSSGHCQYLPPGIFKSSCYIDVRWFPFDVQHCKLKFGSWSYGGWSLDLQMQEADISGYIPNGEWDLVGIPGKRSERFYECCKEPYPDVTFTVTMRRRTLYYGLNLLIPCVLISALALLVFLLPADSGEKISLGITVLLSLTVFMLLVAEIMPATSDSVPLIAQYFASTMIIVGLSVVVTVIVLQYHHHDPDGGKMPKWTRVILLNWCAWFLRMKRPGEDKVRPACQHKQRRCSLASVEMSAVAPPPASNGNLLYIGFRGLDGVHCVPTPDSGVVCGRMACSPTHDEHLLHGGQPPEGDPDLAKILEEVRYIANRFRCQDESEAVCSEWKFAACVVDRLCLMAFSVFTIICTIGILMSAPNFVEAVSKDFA
Sequence of rat α7-nAChRs (Q05941 23-502): as the sequence (Q05941 23-502) above
Sequence of α4β2-nAChR (P09483 31-630): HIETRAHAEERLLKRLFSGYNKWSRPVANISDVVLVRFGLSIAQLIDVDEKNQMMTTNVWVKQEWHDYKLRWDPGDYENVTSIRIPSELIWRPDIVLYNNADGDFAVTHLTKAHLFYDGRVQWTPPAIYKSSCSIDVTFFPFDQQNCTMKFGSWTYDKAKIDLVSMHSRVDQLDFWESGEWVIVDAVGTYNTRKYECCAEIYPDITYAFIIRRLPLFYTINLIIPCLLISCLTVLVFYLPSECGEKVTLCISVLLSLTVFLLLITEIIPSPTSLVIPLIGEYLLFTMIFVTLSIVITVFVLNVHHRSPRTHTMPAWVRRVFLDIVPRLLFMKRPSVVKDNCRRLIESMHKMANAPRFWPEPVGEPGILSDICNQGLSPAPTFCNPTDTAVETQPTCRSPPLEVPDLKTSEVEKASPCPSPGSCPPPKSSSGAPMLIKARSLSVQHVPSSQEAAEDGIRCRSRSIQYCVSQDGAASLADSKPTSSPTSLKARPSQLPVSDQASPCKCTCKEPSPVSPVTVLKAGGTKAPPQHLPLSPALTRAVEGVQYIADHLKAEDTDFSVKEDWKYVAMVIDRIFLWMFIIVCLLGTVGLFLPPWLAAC
Sequence of α4β2-nAChR (P12390 25-500): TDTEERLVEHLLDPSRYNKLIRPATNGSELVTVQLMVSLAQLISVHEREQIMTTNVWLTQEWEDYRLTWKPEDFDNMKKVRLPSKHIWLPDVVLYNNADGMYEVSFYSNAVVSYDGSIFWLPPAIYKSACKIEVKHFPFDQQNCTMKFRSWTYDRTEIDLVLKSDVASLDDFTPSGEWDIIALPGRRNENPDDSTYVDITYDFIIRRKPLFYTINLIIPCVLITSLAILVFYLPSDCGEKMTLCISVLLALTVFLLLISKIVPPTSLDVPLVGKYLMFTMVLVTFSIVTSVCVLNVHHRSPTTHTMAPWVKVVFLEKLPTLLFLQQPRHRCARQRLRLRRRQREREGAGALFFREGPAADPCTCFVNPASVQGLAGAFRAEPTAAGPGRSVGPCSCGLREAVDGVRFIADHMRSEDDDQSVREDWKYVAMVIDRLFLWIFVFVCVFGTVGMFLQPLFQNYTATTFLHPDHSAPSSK
Sequence of rat a7-nAChR (Q05941 23-502): as the sequence (Q05941 23-502) above
T5 sequence (P09483 31-630): as the sequence (P09483 31-630) above
T5 sequence (P12392 21-495): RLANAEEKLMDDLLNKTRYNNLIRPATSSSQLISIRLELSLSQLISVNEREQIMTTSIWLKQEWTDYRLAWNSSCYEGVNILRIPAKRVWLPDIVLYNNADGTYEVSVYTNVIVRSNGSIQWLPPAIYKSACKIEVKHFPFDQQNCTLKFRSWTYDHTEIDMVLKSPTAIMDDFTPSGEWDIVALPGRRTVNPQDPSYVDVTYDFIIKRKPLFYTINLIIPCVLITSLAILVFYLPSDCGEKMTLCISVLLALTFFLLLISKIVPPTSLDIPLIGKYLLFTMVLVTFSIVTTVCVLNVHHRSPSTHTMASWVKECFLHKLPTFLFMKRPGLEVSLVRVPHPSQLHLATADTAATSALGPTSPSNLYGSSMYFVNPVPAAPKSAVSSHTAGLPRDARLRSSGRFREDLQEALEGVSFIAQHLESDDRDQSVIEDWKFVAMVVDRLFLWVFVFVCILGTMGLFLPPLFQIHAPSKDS
T2 sequence (P12389 28-511): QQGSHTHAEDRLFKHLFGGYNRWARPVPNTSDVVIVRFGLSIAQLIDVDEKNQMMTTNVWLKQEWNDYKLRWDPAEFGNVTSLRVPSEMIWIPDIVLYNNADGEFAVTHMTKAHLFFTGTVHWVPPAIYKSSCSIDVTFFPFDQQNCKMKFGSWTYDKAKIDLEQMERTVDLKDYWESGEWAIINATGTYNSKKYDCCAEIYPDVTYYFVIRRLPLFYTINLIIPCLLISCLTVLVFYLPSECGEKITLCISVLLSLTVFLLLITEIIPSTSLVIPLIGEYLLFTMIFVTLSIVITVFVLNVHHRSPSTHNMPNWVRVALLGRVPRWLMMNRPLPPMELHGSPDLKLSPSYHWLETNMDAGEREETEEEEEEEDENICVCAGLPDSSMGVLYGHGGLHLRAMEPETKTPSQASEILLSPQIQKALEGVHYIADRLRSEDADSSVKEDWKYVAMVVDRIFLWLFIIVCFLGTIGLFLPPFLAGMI
T2 sequence (P12392 21-495): as the sequence (P12392 21-495) above
Sequence of α2β2-nAChR (P12389 28-511): as the sequence (P12389 28-511) above
Sequence of α2β2-nAChR (P12390 25-500): as the sequence (P12390 25-500) above
Sequence of α3β2-nAChR (P04757 26-499): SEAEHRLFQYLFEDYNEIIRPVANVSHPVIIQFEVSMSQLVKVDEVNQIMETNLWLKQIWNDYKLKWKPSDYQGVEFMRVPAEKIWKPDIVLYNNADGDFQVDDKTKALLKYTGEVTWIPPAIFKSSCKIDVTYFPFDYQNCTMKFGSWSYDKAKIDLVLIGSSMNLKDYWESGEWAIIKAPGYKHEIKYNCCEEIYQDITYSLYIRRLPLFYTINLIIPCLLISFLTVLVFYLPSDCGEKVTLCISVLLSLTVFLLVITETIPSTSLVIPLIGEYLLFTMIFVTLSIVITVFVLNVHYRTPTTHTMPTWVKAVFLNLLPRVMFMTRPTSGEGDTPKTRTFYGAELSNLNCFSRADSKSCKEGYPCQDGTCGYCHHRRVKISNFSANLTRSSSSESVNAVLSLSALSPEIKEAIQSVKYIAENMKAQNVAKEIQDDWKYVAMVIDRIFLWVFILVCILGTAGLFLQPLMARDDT
Sequence of α3β2-nAChR (P12390 25-500): as the sequence (P12390 25-500) above
T3 sequence (P04757 26-499): as the sequence (P04757 26-499) above
T3 sequence (P12392 21-495): as the sequence (P12392 21-495) above

O=S1(=O)c2cc(N3CCN4CCC3CC4)ccc2-c2cccc(F)c21 [Compound 7a, 3-(1,4-Diazabicyclo[3.2.2]nonan-4-yl)-6-fluorodibenzo[b,d]thiophene 5,5-Dioxide]
behavioral / locomotor activity changes (α7-nAChR [1]): Neither behavioral nor locomotor activity changes were observed | Ki (α2β4-nAChR): 4000 nM | Ki (α7-nAChR [2]; read-out: Ki α7-nAChR): 0.37 nM and 0.45 nM | Ki (α7-nAChR [2]; read-out: Ki α7-nAChR (text)): 0.4 nM | Ki (α3β4-nAChR): 709 nM | Ki (rat a7-nAChR): 0.3 nM | selectivity α7/5HT3 (Human 5-HT3): 561 | Ki (Human 5-HT3; Human 5-HT3 recombinant/HEK293 cells, [3H]GR65630 (0.35 nM)): 230 nM | Ki (α3β2-nAChR): 1000 nM | Ki (α4β4-nAChR): 1000 nM | block of acetylcholine activation (rat α7-nAChRs): nearly completely blocked activation by acetylcholine | Ki (α2β2-nAChR): > 10000 nM | selectivity α7/α4β2 (α4β2-nAChR): 1370 | Ki (α4β2-nAChR; stably transfected HEK293 cells, [3H]epibatidine (0.5 nM)): 562 nM

O=S1(=O)c2cc(N3CCN4CCC3CC4)ccc2-c2cccc([18F])c21 [[^18F]7a]
Ki [3]: 0.3 nM | baseline-to-blockade ratio (α7-nAChR [1]): 13 | specific binding value (α7-nAChR [1]): 94% | time of plasma TAC peak [4]: ≤ 1 min | parent metabolized ([4]; 0.5 h): 52.6±12.9% | parent metabolized ([4]; 1.5 h): 83.5±9.7% | Ki (α7-nAChR [2]; Ki α7-nAChR (text)): 0.4 nM | Approximate BPND, Coll (α7-nAChR [5]): 8.0 and 8.0 ± 1.6 | Approximate BPND, Ctx (α7-nAChR [5]): 5.3 and 5.3 ± 1.2 | Approximate BPND, Hipp (α7-nAChR [5]): 5.5 and 5.5 ± 1.7 | BPND in control mice (α7-nAChR [5]): 8 and 5.3-8.0 | ratios of tissues to cerebellum (α7-nAChR [5]; iv): 10 | regional brain uptake in mutant DISC1 versus control mice (α7-nAChR [6]): significantly lower in all regions studied | unchanged parent in the mouse blood ([7]; after intravenous administration): approximately 1% | combined radiometabolites in the plasma ([7]; mice, 30 min after injection): approximately 99% | Regional BPND ([VT/VND]−1) (a7-nAChR): 3.9 to 6.6 and 3.9-6.6 | nonspecific binding (a7-nAChR): less than 30% | specific binding (a7-nAChR): 80%-90% | brain uptake (a7-nAChR; male, baboon (Papio anubis)): 500 % standardized uptake value [SUV] | lowest observed VT (a7-nAChR; male, baboon (Papio anubis)): 14 mL/mL | acetylcholine-induced whole-cell current restored, of baseline (rat α7-nAChRs): 60% | combined radiometabolites in the plasma [8]: 70% | binding potential BPND (α7-nAChR [9]): ~1 | test-retest variability (TRV) (α7-nAChR [9]): 10.8±5.1% | VT, lower regions (α7-nAChR [9]; male, human): G15 ml/ml | VT, relatively high regions (α7-nAChR [9]; male, human): 920 ml/ml | peak brain uptake (α7-nAChR [9]; male, human): 400 %SUV | time of peak brain uptake (α7-nAChR [9]; male, human): 10 to 15 min | unchanged parent in the mouse brain [10]: at least 95%

Source: patent publication US20170296682A1, “DERIVATIVES OF DIBENZOTHIOPHENE IMAGING OF alpha-7 NICOTINIC ACETYLCHOLINE RECEPTORS” (THE JOHNS HOPKINS UNIVERSITY, priority 2015, published 2017)
